# In US20240199623A1 (ILDONG PHARMACEUTICAL CO., LTD., priority 2020, published 2024):
# Target: human wild type-CFTR (Homo sapiens, UniProt P13569)
# Assay: Cell-based YFP assay
# Parameters: expressed in transfected cells; host or cells: CHO-K1 (Chinese hamster ovary)
# Details: CHO-K1 cells expressing human wild type-CFTR and YFP-H148Q/I152L; forskolin 20 μM = 100% activity; read-out: Cell-based YFP Assay (EC50) Concentration Range
# Description: Forskolin (Tocris cat. #1099), Dimethyl sulfoxide (Sigma cat. #D4540), FLUO star Omega microplate reader (BMG Labtech, Ortenberg, Germany), MARS Data Analysis Software (BMG Labtech), GraphPad Prism 5 (GraphPad Software, Inc.) Chinese hamster ovary (CHO-K1) cells expressing human wild type-CFTR and halide sensor YFP-H148Q/I152L were constructed and grown in Dulbecco's modified Eagle's medium (DMEM) supplemented with 10% FBS, 2 mM glutamine, 100 units/ml penicillin and 100 μg/ml streptomycin. Chinese hamster ovary (CHO-K1) cells expressing human wild type-CFTR and halide sensor YFP-H148Q/I152L were seeded in 96-well microplate with 2×10^4 cells/well and incubated in 37° C., 48 hours. Then, each well was washed 3 times with PBS and 100 μL PBS was added in each well. […] YFP fluorescence signal affected by I^− ion influx through CFTR channel was measured in 37° C., FLUO star Omega microplate reader according to the following steps: • i) basal 2 seconds; • ii) 140 mM I^− solution 100 μL addition to each well; • iii) YFP fluorescence signal measurement start after 6 seconds; and • iv) following 14 seconds signal detection in every 0.4 seconds periods. […] Experiments were performed in triplicates and the data was averaged. EC50 values were calculated with MARS Data Analysis Software (BMG Labtech) and GraphPad Prism 5.
# Sequence of human wild type-CFTR (P13569 whole entry): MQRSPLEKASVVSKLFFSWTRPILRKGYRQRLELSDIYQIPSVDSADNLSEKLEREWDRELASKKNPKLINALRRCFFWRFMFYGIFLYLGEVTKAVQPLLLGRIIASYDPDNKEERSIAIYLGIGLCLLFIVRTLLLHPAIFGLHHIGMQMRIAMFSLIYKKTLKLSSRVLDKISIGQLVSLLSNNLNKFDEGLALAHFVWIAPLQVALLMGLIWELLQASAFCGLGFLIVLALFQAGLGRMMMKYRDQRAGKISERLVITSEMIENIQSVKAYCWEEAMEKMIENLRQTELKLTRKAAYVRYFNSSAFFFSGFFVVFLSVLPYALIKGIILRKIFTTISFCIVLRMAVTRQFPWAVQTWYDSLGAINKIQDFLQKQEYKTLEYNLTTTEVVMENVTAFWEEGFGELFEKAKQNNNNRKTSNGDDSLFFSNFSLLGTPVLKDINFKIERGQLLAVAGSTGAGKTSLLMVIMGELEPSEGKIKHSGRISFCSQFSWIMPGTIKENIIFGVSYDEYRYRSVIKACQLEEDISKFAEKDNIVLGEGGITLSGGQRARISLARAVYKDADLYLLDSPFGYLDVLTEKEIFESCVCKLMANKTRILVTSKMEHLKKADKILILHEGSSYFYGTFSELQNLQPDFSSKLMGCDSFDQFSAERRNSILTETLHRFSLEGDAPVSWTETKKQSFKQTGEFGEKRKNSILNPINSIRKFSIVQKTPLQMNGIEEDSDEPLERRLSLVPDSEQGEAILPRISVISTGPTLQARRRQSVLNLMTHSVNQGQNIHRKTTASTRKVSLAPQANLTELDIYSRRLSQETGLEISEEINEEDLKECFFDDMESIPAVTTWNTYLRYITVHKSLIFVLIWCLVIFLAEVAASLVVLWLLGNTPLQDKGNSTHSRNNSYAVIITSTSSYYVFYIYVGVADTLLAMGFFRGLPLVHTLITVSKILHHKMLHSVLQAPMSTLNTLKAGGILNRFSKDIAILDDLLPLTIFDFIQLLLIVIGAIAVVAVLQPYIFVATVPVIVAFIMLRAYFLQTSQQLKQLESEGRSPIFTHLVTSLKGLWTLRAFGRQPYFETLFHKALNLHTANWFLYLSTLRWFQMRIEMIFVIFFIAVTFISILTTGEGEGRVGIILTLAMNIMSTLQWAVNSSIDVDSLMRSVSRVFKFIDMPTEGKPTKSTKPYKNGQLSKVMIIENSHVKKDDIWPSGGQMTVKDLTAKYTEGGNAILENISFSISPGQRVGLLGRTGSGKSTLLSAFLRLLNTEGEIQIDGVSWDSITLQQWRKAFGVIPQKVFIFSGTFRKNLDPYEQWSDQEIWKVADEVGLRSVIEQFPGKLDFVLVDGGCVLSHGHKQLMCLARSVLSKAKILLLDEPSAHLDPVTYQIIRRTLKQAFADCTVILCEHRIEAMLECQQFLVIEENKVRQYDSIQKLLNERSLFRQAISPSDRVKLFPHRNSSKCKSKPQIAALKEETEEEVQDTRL
row,EC50 [µM],Compound
1,0.2 to 2,COC(=O)c1cc2nccc(-c3ccc(OC)c(OC)c3)n2n1 [Compound 4]
2,≥ 2,"COc1ccc(-c2ccnc3cc(C(=O)O)nn23)cc1OC [Compound 5, 7-(3,4-dimethoxyphenyl)pyrazolo[1,5-a]pyrimidine-2-carboxylic acid]"
3,0.2 to 2,"CCOc1ccc(NC(=O)c2cc3nccc(-c4ccc(OC)cc4)n3n2)cc1 [Compound 13, N-(4-ethoxyphenyl)-7-(4-methoxyphenyl)pyrazolo [1,5-a]pyrimidine-2-carboxamide]"
4,0.2 to 2,"CCOC(=O)CNC(=O)c1cc2nccc(-c3ccc(OC)c(OC)c3)n2n1 [Compound 20, ethyl (7-(3,4-dimethoxyphenyl)pyrazolo [1,5-a]pyrimidine-2-carbonyl) glycinate]"
5,≥ 2,"COc1ccc(-c2ccnc3cc(C(=O)NCC(=O)O)nn23)cc1OC [Compound 22, (7-(3,4-dimethoxyphenyl)pyrazolo[1,5-a]pyrimidine-2-carbonyl) glycine]"
6,≥ 2,"COC(=O)c1ccc(NC(=O)c2cc3nccc(-c4ccc(OC)cc4)n3n2)cc1 [Compound 23, methyl 4-(7-(4-methoxyphenyl)pyrazolo[1,5-a]pyrimidine-2-carboxamido)benzoate]"
7,≥ 2,"CCOc1ccc(NC(=O)c2cc3nccc(-c4cccc(OC)c4)n3n2)cc1 [Compound 24, N-(4-ethoxyphenyl)-7-(3-methoxyphenyl)pyrazolo [1,5-a]pyrimidine-2-carboxamide]"
8,≥ 2,"COC(=O)c1ccc(NC(=O)c2cc3nccc(-c4cccc(OC)c4)n3n2)cc1 [Compound 25, methyl 4-(7-(3-methoxyphenyl)pyrazolo [1,5-a]pyrimidine-2-carboxamido) benzoate]"
9,0.2 to 2,"CCOC(=O)C1(NC(=O)c2cc3nccc(-c4ccc(OC)c(OC)c4)n3n2)CC1 [Compound 26, ethyl 1-(7-(3,4-dimethoxyphenyl)pyrazolo [1,5-a]pyrimidine-2-carboxamido) cyclopropane-1-carboxylate]"
10,≥ 2,"COc1ccc(-c2ccnc3cc(C(=O)NC4CCC(N(C)C)CC4)nn23)cc1OC (stereo not shown) [Compound 27, 7-(3,4-dimethoxyphenyl)-N-(4-(dimethylamino)cyclohexyl) pyrazolo[1,5-a]pyrimidine-2-carboxamide]"
11,≥ 2,"COc1ccc(-c2ccnc3cc(C(=O)NC4(C(=O)O)CC4)nn23)cc1OC [Compound 29, 1-(7-(3,4-dimethoxyphenyl)pyrazolo[1,5-a]pyrimidine-2-carboxamido) cyclopropane-1-carboxylic acid]"
12,≥ 2,"COc1ccc(-c2ccnc3cc(C(=O)Nc4ccc(C(=O)NCC(=O)O)cc4)nn23)cc1OC [Compound 30, (4-(7-(3,4-dimethoxyphenyl)pyrazolo[1,5-a]pyrimidine-2-carboxamido)benzoyl)glycine]"
13,≥ 2,"COc1ccc(-c2ccnc3cc(C(=O)Nc4ccc(OCC(=O)O)cc4)nn23)cc1OC [Compound 35, 2-(4-(7-(3,4-dimethoxyphenyl)pyrazolo[1,5-a]pyrimidine-2-carboxamido)phenoxy)acetic acid]"
14,0.2 to 2,"O=C(Nc1ccc(O)cc1)c1cc2nccc(-c3ccc(O)c(O)c3)n2n1 [Compound 38, 7-(3,4-dihydroxyphenyl)-N-(4-hydroxyphenyl)pyrazolo [1,5-a]pyrimidine-2-carboxamide]"
15,≥ 2,"COC(=O)c1ccc(NC(=O)c2cc3nccc(-c4ccc(Cl)c(Cl)c4)n3n2)cc1 [Compound 40, methyl 4-(7-(3,4-dichlorophenyl)pyrazolo [1,5-a]pyrimidine-2-carboxamido) benzoate]"
16,0.2 to 2,"COc1ccc(-c2ccnc3cc(C(=O)Nc4ccc(C(=O)N[C@@H](C)C(=O)O)cc4)nn23)cc1OC [Compound 44, (4-(7-(3,4-dimethoxyphenyl)pyrazolo[1,5-a]pyrimidine-2-carboxamido)benzoyl)-L-alanine]"
17,≥ 2,"COc1ccc(-c2ccnc3cc(C(=O)Nc4ccc(C(=O)N[C@@H](CO)C(=O)O)cc4)nn23)cc1OC [Compound 45, (4-(7-(3,4-dimethoxyphenyl)pyrazolo[1,5-a]pyrimidine-2-carboxamido)benzoyl)-L-serine]"

row,EC50 [µM],Compound
1,0.2 to 2,"COc1ccc(-c2ccnc3cc(C(=O)Nc4ccc(C(=O)N[C@@H](Cc5ccccc5)C(=O)O)cc4)nn23)cc1OC [Compound 49, (4-(7-(3,4-dimethoxyphenyl)pyrazolo[1,5-a]pyrimidine-2-carboxamido)benzoyl)-L-phenylalanine]"
2,≥ 2,"COc1ccc(-c2ccnc3cc(C(=O)Nc4ccc(C(=O)N5CCC[C@H]5C(=O)O)cc4)nn23)cc1OC [Compound 50, (4-(7-(3,4-dimethoxyphenyl)pyrazolo[1,5-a]pyrimidine-2-carboxamido)benzoyl)-L-proline]"
3,0.2 to 2,"COc1ccc(-c2ccnc3cc(C(=O)Nc4ccc(C(=O)NCCO)cc4)nn23)cc1OC [Compound 53, 7-(3,4-dimethoxyphenyl)-N-(4-((2-hydroxyethyl)carbamoyl)phenyl)pyrazolo[1,5-a] pyrimidine-2-carboxamide]"
4,0.2 to 2,"COc1ccc(-c2ccnc3cc(C(=O)Nc4cccc(C(N)=O)c4)nn23)cc1OC [Compound 54, N-(3-carbamoylphenyl)-7-(3,4-dimethoxyphenyl)pyrazolo [1,5-a]pyrimidine-2-carboxamide]"
5,< 0.2,"COC(=O)[C@H](CCSC)NC(=O)c1ccc(NC(=O)c2cc3nccc(-c4ccc(OC)c(OC)c4)n3n2)cc1 [Compound 59, methyl (4-(7-(3,4-dimethoxyphenyl)pyrazolo [1,5-a]pyrimidine-2-carboxamido)benzoyl)-L-methioninate]"
6,< 0.2,"COC(=O)C[C@H](NC(=O)c1ccc(NC(=O)c2cc3nccc(-c4ccc(OC)c(OC)c4)n3n2)cc1)C(=O)OC [Compound 60, dimethyl (4-(7-(3,4-dimethoxyphenyl)pyrazolo [1,5-a]pyrimidine-2-carboxamido)benzoyl)-L-aspartate]"
7,≥ 2,"COc1ccc(-c2ccnc3cc(C(=O)N4CCOCC4)nn23)cc1OC [Compound 61, (7-(3,4-dimethoxyphenyl)pyrazolo[1,5-a]pyrimidine-2-yl) (morpholino)methanone]"
8,< 0.2,"COC(=O)[C@@H](C)NC(=O)c1ccc(NC(=O)c2cc3nccc(-c4ccc(OC)c(OC)c4)n3n2)cc1 [Compound 64, methyl (4-(7-(3,4-dimethoxyphenyl)pyrazolo[1,5-a]pyrimidine-2-carboxamido)benzoyl)-D-alaninate]"
9,≥ 2,"COc1ccc(-c2ccnc3cc(C(=O)NN4CCN(C)CC4)nn23)cc1OC [Compound 68, 7-(3,4-dimethoxyphenyl)-N-(4-methylpiperazin-1-yl) pyrazolo[1,5-a]pyrimidine-2-carboxamide]"
10,≥ 2,"COC(=O)c1ccc(NC(=O)c2cc3nccc(-c4ccc5c(c4)OCCO5)n3n2)cc1 [Compound 70, methyl 4-(7-(2,3-dihydrobenzo[b][1,4]dioxin-6-yl)pyrazolo[1,5-a]pyrimidine-2-carboxamido)benzoate]"
11,≥ 2,"COc1ccc(-c2ccnc3cc(C(=O)N[C@H]4CC[C@@H](C(N)=O)CC4)nn23)cc1OC [Compound 71, N-((1S,4S)-4-carbamoylcyclohexyl)-7-(3,4-dimethoxyphenyl)pyrazolo [1,5-a]pyrimidine-2-carboxamide]"
12,≥ 2,"COc1ccc(-c2ccnc3cc(C(=O)N[C@H]4CC[C@H](C(N)=O)CC4)nn23)cc1OC [Compound 74, N-((1R,4R)-4-carbamoylcyclohexyl)-7-(3,4-dimethoxyphenyl)pyrazolo [1,5-a]pyrimidine-2-carboxamide]"
13,≥ 2,"COc1ccc(-c2ccnc3cc(C(=O)Nc4cccc(C(=O)N5CCNCC5)c4)nn23)cc1OC [Compound 80, 7-(3,4-dimethoxyphenyl)-N-(3-(piperazine-1-carbonyl)phenyl)pyrazolo [1,5-a]pyrimidine-2-carboxamide]"
14,≥ 2,"COc1ccc(-c2ccnc3cc(C(=O)N[C@H]4CC[C@@H](C(=O)N5CCNCC5)CC4)nn23)cc1OC [Compound 81, 7-(3,4-dimethoxyphenyl)-N-((1S,4S)-4-(piperazine-1-carbonyl)cyclohexyl) pyrazolo[1,5-a]pyrimidine-2-carboxamide]"
15,≥ 2,"COc1ccc(-c2ccnc3cc(C(=O)N[C@H]4CC[C@H](C(=O)N5CCNCC5)CC4)nn23)cc1OC [Compound 82, 7-(3,4-dimethoxyphenyl)-N-((1R,4R)-4-(piperazine-1-carbonyl)cyclohexyl) pyrazolo[1,5-a]pyrimidine-2-carboxamide]"
16,≥ 2,"COc1ccc(-c2ccnc3cc(C(=O)N4CCN(C(=O)COC(C)=O)CC4)nn23)cc1OC [Compound 83, 2-(4-(7-(3,4-dimethoxyphenyl)pyrazolo[1,5-a]pyrimidine-2-carbonyl)piperazin-1-yl)-2-oxoethyl acetate]"
17,≥ 2,"COc1ccc(-c2ccnc3cc(C(=O)NC4CCN(C(=O)COC(C)=O)CC4)nn23)cc1OC [Compound 84, 2-(4-(7-(3,4-dimethoxyphenyl)pyrazolo[1,5-a]pyrimidine-2-carboxamido)piperidin-1-yl)-2-oxoethyl acetate]"
